Patent publication US6376552B1, “Treatment of gallstones” (Knoll Pharmaceutical Company, priority 1999, dated 2002)

Test system: gallstones
Assay: administration to a patient during weight loss, development of gallstones
Assay type: in vivo, human
Conditions: 10 mg orally once daily in the morning while patient is losing weight
Experimental: Sibutramine 10 mg orally once daily is administered in the morning during the time a patient is losing weight.

CC(C)CC(N(C)C)C1(c2ccc(Cl)cc2)CCC1 (stereo not shown) [Sibutramine, N,N-dimethyl-1-[1-(4-chlorophenyl)cyclobutyl]-3-methylbutylamine]
development of gallstones: does not develop gallstones
